Format in all cases: in vivo
The subject of test [1] is Abutilon. Put plainly: Pre-emergence test/greenhouse. Conditions: greenhouse, rated after three weeks. How it is done: (§1) • Solvent: 5 parts by weight of acetone • Emulsifier: 1 part by weight of alkylaryl polyglycol ether
(§2) To produce a suitable preparation of active compound, 1 part by weight of active compound is mixed with the stated amount of solvent, the stated amount of emulsifier is added and the concentrate is diluted with water to the desired concentration.
(§3) Seeds of the test plants are sown in normal soil. After about 24 hours, the soil is sprayed with the preparation of active compound such that the particular amount of active compound desired is applied per unit area. The concentration of the spray liquor is chosen so that the particular amount of active compound desired is applied in 1000 liters of water per hectare.
(§4) After three weeks, the degree of damage to the plants is rated in % damage in comparison to the development of the untreated control.
(§5) The figure denote: • 0%=no effect (like untreated control) • 100%=total destruction

Test [2] deals with Alopecurus. Put plainly: Pre-emergence test/greenhouse. Conditions: greenhouse, rated after three weeks. How it is done: as §1, §2, §3, §4, §5
Test [3] deals with Amaranthus. Briefly: Pre-emergence test/greenhouse. Conditions: greenhouse, rated after three weeks. How it is done: as §1, §2, §3, §4, §5
Test [4] deals with Cyperus. Put plainly: Pre-emergence test/greenhouse. The settings on record: greenhouse, rated after three weeks. The procedure: as §1, §2, §3, §4, §5
Test [5] deals with Galium. Briefly: Pre-emergence test/greenhouse. Conditions: greenhouse, 250 g of ai/ha, rated after three weeks. How it is done:
as §1, §2, §3, §4, §5

The test system of test [6] is Setaria. Briefly: Pre-emergence test/greenhouse. Conditions: greenhouse, rated after three weeks. The procedure: as §1, §2, §3, §4, §5
Test [7] has as its system Sinapis. Put plainly: Pre-emergence test/greenhouse. Conditions: greenhouse, rated after three weeks. The procedure: as §1, §2, §3, §4, §5
The test system of test [8] is weeds. Put plainly: Pre-emergence test, activity against weeds. The procedure: as §1, §2, §3, §4, §5
For test [9], the system named is Abutilon. Briefly: Post-emergence test/greenhouse. The settings on record: greenhouse, rated after three weeks. How it is done: as §1
(§6) To produce a suitable preparation of active compound, one part by weight of active compound is mixed with the stated amount of solvent, the stated amount of emulsifier is added and the concentrate is diluted with water to the desired concentration.
(§7) Test plants which have a height of 5-15 cm are sprayed with the preparation of active compound such that the particular amounts of active compound desired are applied per unit area. The concentration of the spray liquor is chosen so that the particular amounts of active compound desired are applied in 1000 l of water/ha.
as §4
(§8) The figures denote: • 0%=no effect (like untreated control) • 100%=total destruction

Test [10] has as its system Alopecurus. Briefly: Post-emergence test/greenhouse. Conditions: greenhouse, rated after three weeks. How it is done: as §1, §6, §7, §4, §8
For test [11], the system named is Amaranthus. Briefly: Post-emergence test/greenhouse. Conditions: greenhouse, rated after three weeks. How it is done: as §1, §6, §7, §4, §8
The subject of test [12] is Avenafatua. Put plainly: Post-emergence test/greenhouse. Conditions: greenhouse, rated after three weeks. The procedure:
as §1, §6, §7, §4, §8

Test [13] concerns Setaria. Put plainly: Post-emergence test/greenhouse. Conditions: greenhouse, rated after three weeks. How it is done: as §1, §6, §7, §4, §8
Test [14] concerns Sinapis. Put plainly: Post-emergence test/greenhouse. The settings on record: greenhouse, rated after three weeks. The procedure:
as §1, §6, §7, §4, §8

In test [15] the test system is Xanthium. Briefly: Post-emergence test/greenhouse. Conditions: greenhouse, rated after three weeks. How it is done: as §1, §6, §7, §4, §8
The subject of test [16] is weeds. Briefly: Post-emergence test, activity against weeds. How it is done:
as §1, §6, §7, §4, §8

For test [17], the system named is Xanthium. Briefly: Pre-emergence test/greenhouse. The settings on record: greenhouse, 60 g of ai/ha, rated after three weeks. How it is done:
as §1, §2, §3, §4, §5

For the compound `COC(=O)c1csc(C)c1S(=O)(=O)NC(=O)n1nc(C2CC2)n(C2CC2)c1=O` [Example 9], the “degree of damage to the plants, Abutilon” value in [1] (250 g of ai/ha) and in test [9] (250 g of ai/ha) was 100% each time. Further, the “degree of damage to the plants, Alopecurus” value (shortened to “degree of damage … Alopecurus”) is reported as 95% in test [2] (250 g of ai/ha) and 100% in [10] (250 g of ai/ha). Besides, the “degree of damage to the plants, Amaranthus” value (“degree of damage … Amaranthus” for short) in test [3] (250 g of ai/ha) and in test [11] (250 g of ai/ha) was 100% in each case. Moreover, the “degree of damage to the plants, Cyperus” value in test [4] (250 g of ai/ha) is on record as 100%. In addition, in [5], the “degree of damage to the plants, Galium” value came out at 95%. Besides, the “degree of damage to the plants, Setaria” value in test [6] (250 g of ai/ha) and in test [13] (250 g of ai/ha) was 100% in each case. Further, the “degree of damage to the plants, Sinapis” value in test [7] (250 g of ai/ha) was 95%; in test [14] (250 g of ai/ha), 100%. In addition, the activity against weeds result in test [8] and in test [16] was “very strong activity” each time. The “degree of damage to the plants, Avenafatua” value (“degree of damage … Avenafatua” below) in [12] (250 g of ai/ha) was determined as 100%. The “degree of damage to the plants, Xanthium” value in test [15] (250 g of ai/ha) was 100%.

In the case of `CCCOc1nn(C(=O)NS(=O)(=O)c2c(C(=O)OC)csc2C)c(=O)n1C1CC1` [Example 7], the “degree of damage to the plants, Abutilon” value in [1] (250 g of ai/ha) is listed as 95%; in test [9] (250 g of ai/ha), 100%. In addition, the results for the “degree of damage … Alopecurus” value in test [2] (250 g of ai/ha) and in test [10] (250 g of ai/ha) were 90% and 95%, respectively. The “degree of damage … Amaranthus” value in [3] (250 g of ai/ha) came to 95%; in test [11] (250 g of ai/ha), 100%. The “degree of damage to the plants, Cyperus” value in test [4] (250 g of ai/ha) is given as 100%. Besides, the “degree of damage to the plants, Galium” value in test [5] worked out at 95%. Besides, the “degree of damage to the plants, Setaria” value in test [6] (250 g of ai/ha) was 95%; in test [13] (250 g of ai/ha), 90%. Moreover, the “degree of damage to the plants, Sinapis” value in test [7] (250 g of ai/ha) was found to be 95%; in test [14] (250 g of ai/ha), 100%. In addition, the activity against weeds result in test [8] and in test [16] was “very strong activity” in each case. Also, the “degree of damage … Avenafatua” value in test [12] (250 g of ai/ha) is reported as 100%. Moreover, in [15] (250 g of ai/ha), the “degree of damage to the plants, Xanthium” value worked out at 90%.

On to `COC(=O)c1csc(C)c1S(=O)(=O)NC(=O)n1nc(OC)n(C)c1=O` [Example 2], for which the “degree of damage to the plants, Abutilon” value came out at 95% in [1] (60 g of ai/ha) and 100% in test [9] (60 g of ai/ha). Besides, the “degree of damage … Alopecurus” value in test [2] (60 g of ai/ha) and in [10] (60 g of ai/ha) was 95% in each case. Moreover, the “degree of damage … Amaranthus” value in test [3] (60 g of ai/ha) and in test [11] (60 g of ai/ha) was 100% throughout. For the same compound, the “degree of damage to the plants, Cyperus” value in test [4] (60 g of ai/ha) is recorded as 100%. Further, the “degree of damage to the plants, Setaria” value in test [6] (60 g of ai/ha) is recorded as 95%; in [13] (60 g of ai/ha), 100%. The “degree of damage to the plants, Sinapis” value in test [7] (60 g of ai/ha) is listed as 95%; in [14] (60 g of ai/ha) it was 100%. In addition, the “degree of damage to the plants, Xanthium” value in [17] and in test [15] (60 g of ai/ha) was 100% each time. Also, the activity against weeds entry in test [8] and in [16] was “very strong activity” each time. The “degree of damage … Avenafatua” value in test [12] (60 g of ai/ha) is reported as 80%.

Values taken from patent US7642221B2, “Substituted thien-3-yl-sulphonylamino(thio)carbonyl-triazoline(ethi)ones” (Bayer Aktiengesellschaft, priority 1999, dated 2010).
